Holding throughout (format): cell-based
The test system of experiment [1] is A549 (ATCC CCL 185): human lung carcinoma. Nature of the experiment: In vitro antitumor activity, MTT assay, A549. Particulars: Homo sapiens, A549, 48 h. Here is the method:
(§1) In vitro antitumor activity against human tumor cell lines
(§2) In vitro antitumor activity of the compounds according to the present invention was determined by MTT assay method against the following human tumor cell lines:
A549 (ATCC CCL 185): human lung carcinoma
(§3) In this test, the known antineoplastic compounds, Doxorubicin and Sulofenur, were used as the comparative agents.
(§4) Each of the tumor cells was cultured in RPMI 1640 media containing 10% fetal bovine serum, 100 IU/ml penicillin and 100 μg/ml streptomycin, and then periodically subcultured once or twice per week in trypsin-EDTA solution containing 0.05% trypsin and 0.53mM EDTA.4Na. The human tumor cell line thus obtained (10,000cells/100 μl) was plated on 96-well microplate and then cultured for 24 hrs at 37° C. in a 5% CO2 incubator. Test compound was dissolved in DMSO, sterilized with 0.22 μm PVDF filter, and then serially 5-fold diluted from 40 μg/ml to 0.00256μg/ml. 100 μl of the sample solution thus prepared and RPMI 1640 medium only (control group) were added to 96-well microplate containing the human tumor cell, respectively. The final concentration of the test compound was in the range from 20 μg/ml to 0.00128 μg/ml and the concentration of DMSO was below 0.5%. The cells were cultured for 48 hrs at 37° C. in a 5% CO2 incubator. MTT(3-(4,5-Dimethylthiazole-2-yl)-e,5-diphenyltetrazoliumbromide) was dissolved in physiological saline in a concentration of 2 mg/ml and the resulting solution was filtered through 0.22 μm PTFE filter. 25 μl of MTT solution thus prepared was added to each well of 96-well microplate and incubated for additional 4 hrs at 37° C. in a 5% CO2 incubator. Then, the content of microplate was centrifuged at 1000 rpm for 10 min, and supernatant was removed by flicking. The formazan formed from MTT by mitochondrial succinate dehydrogenase was dissolved in 100 μl of DMSO. The absorbance of each well was measured at 540nm by micro ELISA reader and the cytotoxicity was calculated by dividing the absorbance of test group by the absorbance of control group. After the calculated cytotoxicity (%) was plotted, the concentration of 50% tumor growth inhibition concentration (IC50) was estimated by Linear-Regression method.

Experiment [2] concerns SK-OV-3 (ATCC HTB 77): human ovarian adenocarcinoma. Briefly: In vitro antitumor activity, MTT assay, SK-OV-3. Particulars: Homo sapiens. The protocol: as §1, §2
SK-OV-3 (ATCC HTB 77): human ovarian adenocarcinoma
as §3, §4

The subject of experiment [3] is K562 (ATCC CCL 243): human chronic myelogenous leukemia. Nature of the experiment: In vitro antitumor activity, MTT assay, K562. Particulars: Homo sapiens, K562, 48 h, Table 4, read-out: IC50 (K562). Here is the method:
as §1, §2
K562 (ATCC CCL 243): human chronic myelogenous leukemia
as §3, §4

Experiment [4] concerns Colo205 (ATCC CCL 222): human colon adenocarcinoma. Nature of the experiment: In vitro antitumor activity, MTT assay, Colo205. Particulars: Homo sapiens. Here is the method: as §1, §2
Colo205 (ATCC CCL 222): human colon adenocarcinoma
as §3, §4

Setting [5] is: COLO 205, Table 1, 48 hrs, read-out: IC50 (Colo205).

Values after ≈ are worked out from the molar mass of the structure shown. Like-named read-outs stand apart in the source and are kept apart here. A value given as a limit tells only on which side of the number the result lay.

For the compound `O=C(c1ccccc1)N1CCc2cc(S(=O)(=O)N3CC(c4ccccc4)NC3=O)ccc21` (stereo not drawn) [Example 47, 4-phenyl-1-(N-benzoylindoline-5-sulfonyl)-4,5-dihydro-2-imidazolone], the half-inhibitory concentration (IC50) in experiment [1] (Table 4) turned out to be 0.196 µg/mL (≈ 0.438 µM); in experiment [2] (SK-OV-3, Table 4, 48 hrs), 0.26 µg/mL (≈ 0.581 µM); in experiment [3], 1.84 µg/mL (≈ 4.12 µM).

For `O=C(c1ccc(Cl)cc1)N1CCc2cc(S(=O)(=O)N3CC(c4ccccc4)NC3=O)ccc21` (stereo not drawn) [Example 53, 4-phenyl-1-[N-(4-chlorobenzoyl)indoline-5-sulfonyl]-4,5-dihydro-2-imidazolone], the IC50 was found to be 0.774 µg/mL (≈ 1.61 µM) in experiment [1] (Table 4); 5.97 µg/mL (≈ 12.4 µM) in experiment [2] (SK-OV-3, Table 4, 48 hrs); 0.594 µg/mL (≈ 1.23 µM) in experiment [3].

`O=C(c1ccc(F)cc1)N1CCc2cc(S(=O)(=O)N3CC(c4ccccc4)NC3=O)ccc21` (stereo not drawn) [Example 54, 4-phenyl-1-[N-(4-fluorobenzoyl)indoline-5-sulfonyl]-4,5-dihydro-2-imidazolone]: the IC50 in experiment [1] (Table 4) turned out to be 0.59 µg/mL (≈ 1.27 µM); in experiment [2] (SK-OV-3, Table 4, 48 hrs), 2.33 µg/mL (≈ 5 µM); in experiment [3], 3.64 µg/mL (≈ 7.83 µM).

Regarding `O=C(c1ccc([N+](=O)[O-])cc1)N1CCc2cc(S(=O)(=O)N3CC(c4ccccc4)NC3=O)ccc21` (stereo not drawn) [Example 55, 4-phenyl-1-[N-(4-nitrobenzoyl)indoline-5-sulfonyl]-4,5-dihydro-2-imidazolone], the IC50 in experiment [1] (Table 4) turned out to be 1.7 µg/mL (≈ 3.45 µM); in experiment [2] (SK-OV-3, Table 4, 48 hrs), 2.09 µg/mL (≈ 4.24 µM); in experiment [3], 8.88 µg/mL (≈ 18 µM).

Take `O=C(c1ccccc1O)N1CCc2cc(S(=O)(=O)N3CC(c4ccccc4)NC3=O)ccc21` (stereo not drawn) [Example 49, 4-phenyl-1-[N-(2-hydroxybenzoyl)indoline-5-sulfonyl]-4,5-dihydro-2-imidazolone]: the half-maximal inhibitory concentration (IC50) in experiment [1] (Table 4) came to 0.638 µg/mL (≈ 1.38 µM); in experiment [2] (SK-OV-3, Table 4, 48 hrs), 0.591 µg/mL (≈ 1.28 µM); in experiment [3], 5.71 µg/mL (≈ 12.3 µM).

As for `O=C(c1cc(Cl)cc(Cl)c1)N1CCc2cc(S(=O)(=O)N3CC(c4ccccc4)NC3=O)ccc21` (stereo not drawn) [Example 59, 4-phenyl-1-[N-(3,5-dichlorobenzoyl)indoline-5-sulfonyl]-4,5-dihydro-2-imidazolone], the IC50 in experiment [1] (Table 4) amounted to 2.02 µg/mL (≈ 3.92 µM); in experiment [2] (SK-OV-3, Table 4, 48 hrs) it was 16.5 µg/mL (≈ 32 µM); in experiment [3], 1.88 µg/mL (≈ 3.64 µM).

As to `CC(C)NC(=O)N1CCc2cc(S(=O)(=O)n3cc(-c4ccccc4)[nH]c3=O)ccc21` [Example 6, 4-phenyl-1-(N-isopropylcarbamoylindoline-5-sulfonyl)-2-imidazolone], the IC50 was under 0.00128 µg/mL in experiment [1] (Table 1); under 0.00128 µg/mL in experiment [4] (setting [5]); under 0.00128 µg/mL in experiment [2] (SK-OV-3, Table 1, 48 hrs).

Regarding `CCOc1ccc(C(=O)N2CCc3cc(S(=O)(=O)N4CC(c5ccccc5)NC4=O)ccc32)cc1` (stereo not drawn) [Example 52, 4-phenyl-1-[N-(4-ethoxybenzoyl)indoline-5-sulfonyl]-4,5-dihydro-2-imidazolone], the IC50 in experiment [1] (Table 4) came out at 0.101 µg/mL (≈ 0.205 µM); in experiment [2] (SK-OV-3, Table 4, 48 hrs), 2.22 µg/mL (≈ 4.51 µM).

As to `C=CCNC(=O)N1CCc2cc(S(=O)(=O)N3CC(c4ccccc4)NC3=O)ccc21` (stereo not drawn) [Example 32, 4-phenyl-1-(N-allylcarbamoylindoline-5-sulfonyl)-4,5-dihydro-2-imidazolone], the IC50 in experiment [1] (Table 3) is 0.042 µg/mL (≈ 0.0985 µM); in experiment [4] (COLO 205, Table 3, 48 hrs, read-out: IC50 (Col205)), 7.1 µg/mL (≈ 16.6 µM); in experiment [2] (SK-OV-3, Table 3, 48 hrs) it was 0.685 µg/mL (≈ 1.61 µM).

For the compound `O=C(c1ccc(OC(F)(F)F)cc1)N1CCc2cc(S(=O)(=O)N3CC(c4ccccc4)NC3=O)ccc21` (stereo not drawn) [Example 64, 4-phenyl-1-[N-(4-trifluoromethoxybenzoyl)indoline-5-sulfonyl]-4,5-dihydro-2-imidazolone], the concentration for half-maximal inhibition (IC50) in experiment [1] (Table 4) turned out to be 0.695 µg/mL (≈ 1.31 µM); in experiment [2] (SK-OV-3, Table 4, 48 hrs), 2.96 µg/mL (≈ 5.56 µM).

`O=C(c1cccc(OC(F)(F)F)c1)N1CCc2cc(S(=O)(=O)N3CC(c4ccccc4)NC3=O)ccc21` (stereo not drawn) [Example 63, 4-phenyl-1-[N-(3-trifluoromethoxybenzoyl)indoline-5-sulfonyl]-4,5-dihydro-2-imidazolone]: the 50% inhibitory concentration (IC50) in experiment [1] (Table 4) was found to be 2.74 µg/mL (≈ 5.15 µM); in experiment [2] (SK-OV-3, Table 4, 48 hrs), 11.3 µg/mL (≈ 21.4 µM).

Regarding `CCCNC(=O)N1CCc2cc(S(=O)(=O)n3cc(-c4ccccc4)[nH]c3=O)ccc21` [Example 4, 4-phenyl-1-(N-propylcarbamoylindoline-5-sulfonyl)-2-imidazolone], the half-maximal inhibitory concentration (IC50) in experiment [1] (Table 1) was 0.052 µg/mL (≈ 0.122 µM); in experiment [4] (setting [5]), under 0.00128 µg/mL; in experiment [2] (SK-OV-3, Table 1, 48 hrs) it was under 0.00128 µg/mL.

For the origin of these results see patent US5932742A, “Arylsulfonylimidazolone derivatives as an antitumor agent” (priority 1996, dated 1999).
